We go through eleven molecules from ChEMBL document CHEMBL5532661, “Discovery of a Novel Glucagon-like Peptide-1 (GLP-1) Analogue from Bullfrog and Investigation of Its Potential for Designing GLP-1-Based Multiagonists” (J Med Chem, 2024).

What is called EC50 is the midpoint of the concentration-response curve.

Format in all cases: functional, cell-based
Test [1] deals with T1, Glucagon receptor (Homo sapiens, UniProt P47871). Kind of test: Agonist activity at human GCGR expressed in HEK293 cells assessed as cAMP level by measuring relative percent (glucagon EC50/compound EC50) measured after 60 mins by HTRF based assay relative to glucagon. In general terms: cAMP levels reflect the balance of adenylyl cyclase and phosphodiesterase activity.
The target in test [2] is T2, Glucagon-like peptide 1 receptor (Homo sapiens, UniProt P43220). Briefly: Agonist activity at human GLP-1 receptor expressed in HEK293 cells assessed as cAMP level by measuring relative percent (GLP-1 EC50/compound EC50) measured after 60 mins by HTRF based assay relative to GLP-1.
Test [3] addresses T3, Gastric inhibitory polypeptide receptor (Homo sapiens) (UniProt P48546).
T3 sequence (whole entry): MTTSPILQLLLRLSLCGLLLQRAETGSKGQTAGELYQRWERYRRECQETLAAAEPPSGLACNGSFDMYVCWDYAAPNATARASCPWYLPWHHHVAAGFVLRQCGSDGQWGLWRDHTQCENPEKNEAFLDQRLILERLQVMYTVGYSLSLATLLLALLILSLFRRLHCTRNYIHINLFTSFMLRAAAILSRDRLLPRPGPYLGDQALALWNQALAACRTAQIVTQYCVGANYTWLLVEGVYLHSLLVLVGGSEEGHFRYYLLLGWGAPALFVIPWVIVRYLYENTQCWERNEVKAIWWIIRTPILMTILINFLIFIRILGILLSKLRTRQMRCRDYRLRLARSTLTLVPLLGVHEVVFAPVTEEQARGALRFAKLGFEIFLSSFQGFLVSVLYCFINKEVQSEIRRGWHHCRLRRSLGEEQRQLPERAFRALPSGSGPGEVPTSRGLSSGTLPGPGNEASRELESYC
Kind of test: Agonist activity at human GIPR receptor expressed in HEK293 cells assessed as cAMP level by measuring relative percent (GIP EC50/compound EC50) measured after 60 mins by HTRF based assay relative to GIP.

The target in test [4] is T1, Glucagon receptor. Briefly: Agonist activity at human GCGR expressed in HEK293 cells assessed as cAMP level measured after 60 mins by HTRF based assay.
The target in test [5] is T4, Gastric inhibitory polypeptide receptor (Homo sapiens, UniProt P48546).
T4 sequence (P48546 whole entry): T3 sequence (whole entry)
Briefly: Agonist activity at human GIPR receptor expressed in HEK293 cells assessed as cAMP level measured after 60 mins by HTRF based assay.

Test [6] concerns the target T2, Glucagon-like peptide 1 receptor. Kind of test: Agonist activity at human GLP-1 receptor expressed in HEK293 cells assessed as cAMP level measured after 60 mins by HTRF based assay.

Numbered stars: 1 amine (or outer) side, 2 acyl side, 3 side chain; on linkers, the order of the positions; unused ones are H or OH. Square brackets hold non-standard residues; d marks the D form. Side chains are listed from the residue outwards. Peptide text beside a SMILES is read from it. * marks the point of attachment. C20 diacid = O=C(O)CCCCCCCCCCCCCCCCCCC(=O)*; C18 diacid = O=C(O)CCCCCCCCCCCCCCCCC(=O)*; γGlu = O=C(O)[C@H](CCC(=O)[*:2])N[*:1]; AEEA = NCCOCCOCC(=O)O; Aib = CC(C)(N)C(=O)O

T2 sequence (P43220 whole entry): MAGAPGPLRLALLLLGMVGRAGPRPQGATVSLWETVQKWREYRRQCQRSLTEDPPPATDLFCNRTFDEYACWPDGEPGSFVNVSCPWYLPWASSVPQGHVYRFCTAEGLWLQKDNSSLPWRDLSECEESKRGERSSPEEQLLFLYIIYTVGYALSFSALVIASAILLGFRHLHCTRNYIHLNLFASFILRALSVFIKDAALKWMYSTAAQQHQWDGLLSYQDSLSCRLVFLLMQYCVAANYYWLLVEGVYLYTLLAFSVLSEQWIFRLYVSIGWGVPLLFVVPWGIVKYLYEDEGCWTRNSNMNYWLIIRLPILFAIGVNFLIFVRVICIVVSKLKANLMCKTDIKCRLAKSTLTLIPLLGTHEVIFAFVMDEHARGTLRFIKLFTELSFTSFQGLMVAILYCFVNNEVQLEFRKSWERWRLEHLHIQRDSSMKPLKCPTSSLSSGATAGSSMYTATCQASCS
T1 sequence (P47871 whole entry): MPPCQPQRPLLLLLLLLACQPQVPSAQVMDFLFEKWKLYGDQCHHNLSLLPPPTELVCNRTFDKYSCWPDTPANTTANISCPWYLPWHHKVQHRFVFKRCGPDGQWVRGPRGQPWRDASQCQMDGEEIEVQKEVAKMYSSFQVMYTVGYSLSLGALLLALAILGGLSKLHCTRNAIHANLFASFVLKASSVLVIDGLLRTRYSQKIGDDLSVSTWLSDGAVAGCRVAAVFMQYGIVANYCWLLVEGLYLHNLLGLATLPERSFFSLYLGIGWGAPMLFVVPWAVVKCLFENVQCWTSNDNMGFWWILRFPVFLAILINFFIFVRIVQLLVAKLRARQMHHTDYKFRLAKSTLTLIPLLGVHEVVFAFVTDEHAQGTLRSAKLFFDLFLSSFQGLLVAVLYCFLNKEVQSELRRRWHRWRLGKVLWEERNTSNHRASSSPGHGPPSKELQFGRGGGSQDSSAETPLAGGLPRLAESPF

As to `CC[C@H](C)[C@H](NC(=O)[C@H](CCCCNC(=O)COCCOCCNC(=O)COCCOCCNC(=O)CC[C@H](NC(=O)CCCCCCCCCCCCCCCCCCC(=O)O)C(=O)O)NC(=O)[C@H](CCC(=O)O)NC(=O)[C@H](CC(C)C)NC(=O)[C@H](C)NC(=O)[C@H](CCCNC(=N)N)NC(=O)[C@H](CO)NC(=O)[C@H](CCSC)NC(=O)[C@H](CC(=O)O)NC(=O)[C@H](CO)NC(=O)[C@@H](NC(=O)[C@H](Cc1ccccc1)NC(=O)[C@@H](NC(=O)CNC(=O)[C@H](CCC(N)=O)NC(=O)C(C)(C)NC(=O)[C@@H](N)Cc1c[nH]cn1)[C@@H](C)O)[C@@H](C)O)C(=O)N[C@@H](C)C(=O)N[C@@H](C)C(=O)N[C@@H](CCCNC(=N)N)C(=O)N[C@@H](CC(C)C)C(=O)N[C@@H](Cc1ccccc1)C(=O)N[C@H](C(=O)N[C@@H](CC(=O)O)C(=O)N[C@@H](Cc1c[nH]c2ccccc12)C(=O)N[C@@H](CC(C)C)C(=O)N[C@H](C(=O)N[C@@H](CCC(=O)O)C(=O)NCC(=O)NCC(=O)N1CCC[C@H]1C(=O)N[C@@H](CO)C(=O)N[C@@H](CO)C(=O)NCC(=O)N[C@@H](C)C(=O)N1CCC[C@H]1C(=O)N1CCC[C@H]1C(=O)N1CCC[C@H]1C(=O)N[C@@H](CO)C(N)=O)[C@@H](C)CC)C(C)C` (H-H[Aib]QGTFTSDMSRALEK([AEEA-AEEA-γGlu-C20 diacid])IAARLFVDWLIEGGPSSGAPPPS-NH2), the Activity in test [1] was determined as 17%; in test [2] (filed as agonist) it was 294%; in test [3], 3%. Also, the EC50 in test [4] is 0.53 nM; in test [5], 0.96 nM; in test [6], 0.018 nM.

On to `CC[C@H](C)[C@H](NC(=O)[C@H](CCCCNC(=O)COCCOCCNC(=O)COCCOCCNC(=O)CC[C@H](NC(=O)CCCCCCCCCCCCCCCCC(=O)O)C(=O)O)NC(=O)[C@H](CCC(=O)O)NC(=O)[C@H](CCSC)NC(=O)[C@H](C)NC(=O)[C@H](CCCNC(=N)N)NC(=O)[C@H](CO)NC(=O)[C@H](CCSC)NC(=O)[C@H](CC(=O)O)NC(=O)[C@H](CO)NC(=O)[C@@H](NC(=O)[C@H](Cc1ccccc1)NC(=O)[C@@H](NC(=O)CNC(=O)[C@H](CCC(N)=O)NC(=O)C(C)(C)NC(=O)[C@@H](N)Cc1c[nH]cn1)[C@@H](C)O)[C@@H](C)O)C(=O)N[C@@H](C)C(=O)N[C@H](C(=O)N[C@@H](CCCNC(=N)N)C(=O)N[C@@H](CC(C)C)C(=O)N[C@@H](Cc1ccccc1)C(=O)N[C@H](C(=O)N[C@@H](CC(=O)O)C(=O)N[C@@H](Cc1c[nH]c2ccccc12)C(=O)N[C@@H](CC(C)C)C(=O)N[C@H](C(=O)N[C@@H](CCC(=O)O)C(=O)NCC(=O)NCC(=O)N1CCC[C@H]1C(=O)N[C@@H](CO)C(=O)N[C@@H](CO)C(=O)NCC(=O)N[C@@H](C)C(=O)N1CCC[C@H]1C(=O)N1CCC[C@H]1C(=O)N1CCC[C@H]1C(=O)N[C@@H](CO)C(N)=O)[C@@H](C)CC)C(C)C)C(C)C` (H-H[Aib]QGTFTSDMSRAMEK([AEEA-AEEA-γGlu-C18 diacid])IAVRLFVDWLIEGGPSSGAPPPS-NH2), for which the Activity in test [1] was determined as 15%; in test [2] (filed as agonist) it was 279%; in test [3], 3%. Besides, the EC50 was found to be 0.61 nM in test [4], 0.83 nM in test [5] and 0.019 nM in test [6].

As to `CC[C@H](C)[C@H](NC(=O)[C@H](CCCCNC(=O)COCCOCCNC(=O)COCCOCCNC(=O)CC[C@H](NC(=O)CCCCCCCCCCCCCCCCC(=O)O)C(=O)O)NC(=O)[C@H](CCC(=O)O)NC(=O)[C@H](CCSC)NC(=O)[C@H](C)NC(=O)[C@H](CCCNC(=N)N)NC(=O)[C@H](CO)NC(=O)[C@H](CC(C)C)NC(=O)[C@H](CC(=O)O)NC(=O)[C@H](CO)NC(=O)[C@@H](NC(=O)[C@H](Cc1ccccc1)NC(=O)[C@@H](NC(=O)CNC(=O)[C@H](CCC(N)=O)NC(=O)C(C)(C)NC(=O)[C@@H](N)Cc1c[nH]cn1)[C@@H](C)O)[C@@H](C)O)C(=O)N[C@@H](C)C(=O)N[C@H](C(=O)N[C@@H](CCCNC(=N)N)C(=O)N[C@@H](CC(C)C)C(=O)N[C@@H](Cc1ccccc1)C(=O)N[C@H](C(=O)N[C@@H](CCC(=O)O)C(=O)N[C@@H](Cc1c[nH]c2ccccc12)C(=O)N[C@@H](CC(C)C)C(=O)N[C@H](C(=O)N[C@@H](CCC(=O)O)C(=O)NCC(=O)NCC(=O)N1CCC[C@H]1C(=O)N[C@@H](CO)C(=O)N[C@@H](CO)C(=O)NCC(=O)N[C@@H](C)C(=O)N1CCC[C@H]1C(=O)N1CCC[C@H]1C(=O)N1CCC[C@H]1C(=O)N[C@@H](CO)C(N)=O)[C@@H](C)CC)[C@@H](C)CC)C(C)C` (H-H[Aib]QGTFTSDLSRAMEK([AEEA-AEEA-γGlu-C18 diacid])IAVRLFIEWLIEGGPSSGAPPPS-NH2), the Activity in test [1] is 4%; in test [2] (filed as agonist), 177%; in test [3] it was 3%. For the same molecule, the EC50 in test [4] is 2.6 nM; in test [5], 0.99 nM; in test [6] it was 0.03 nM.

Take `CSCC[C@H](NC(=O)[C@H](CC(=O)O)NC(=O)[C@H](CO)NC(=O)[C@@H](NC(=O)[C@H](Cc1ccccc1)NC(=O)[C@@H](NC(=O)CNC(=O)[C@H](CCC(N)=O)NC(=O)[C@H](CO)NC(=O)[C@@H](N)Cc1c[nH]cn1)[C@@H](C)O)[C@@H](C)O)C(=O)N[C@@H](CO)C(=O)N[C@@H](CCCCN)C(=O)N[C@@H](Cc1ccc(O)cc1)C(=O)N[C@@H](CC(C)C)C(=O)N[C@@H](CC(=O)O)C(=O)N[C@@H](CO)C(=O)N[C@@H](CCCNC(=N)N)C(=O)N[C@@H](CCCNC(=N)N)C(=O)N[C@@H](C)C(=O)N[C@@H](CCC(N)=O)C(=O)N[C@@H](CC(=O)O)C(=O)N[C@@H](Cc1ccccc1)C(=O)N[C@H](C(=O)N[C@@H](CC(=O)O)C(=O)N[C@@H](Cc1c[nH]c2ccccc12)C(=O)N[C@@H](CC(C)C)C(=O)N[C@@H](CCCCN)C(=O)N[C@@H](CC(N)=O)C(=O)NCC(=O)NCC(=O)N1CCC[C@H]1C(=O)N[C@@H](CO)C(=O)N[C@@H](CO)C(=O)NCC(=O)N[C@@H](C)C(=O)N1CCC[C@H]1C(=O)N1CCC[C@H]1C(=O)N1CCC[C@H]1C(=O)N[C@@H](CO)C(=O)N[C@@H](CCCCNC(=O)COCCOCCNC(=O)COCCOCCNC(=O)CC[C@H](NC(=O)CCCCCCCCCCCCCCCCC(=O)O)C(=O)O)C(N)=O)C(C)C` (H-HSQGTFTSDMSKYLDSRRAQDFVDWLKNGGPSSGAPPPSK([AEEA-AEEA-γGlu-C18 diacid])-NH2): the values for the Activity in test [1] and in test [2] (filed as agonist) were 3% and 156%, respectively. Also, the EC50 came out at 3.1 nM in test [4] and 0.034 nM in test [6].

Regarding H-HSQGTFTSDMSSYLDSRRAQEFVDWLIKGR-NH2, the results for the Activity in test [1] and in test [2] were 3% and 6%, respectively. Moreover, the EC50 in test [4] was 3.5 nM; in test [6], 0.87 nM.

In the case of H-HSQGTFTSDMSKYLDSRRAQDFVDWLIKG-NH2, the Activity in test [1] stood at 4%; in test [2], 7%. The figures for the EC50 in test [4] and in test [6] were 2.6 nM and 0.81 nM, respectively.

As for “H-HSQGTFTSDMSKYLDSRRAQDFVDWLIKGRNRNNIA-NH2”, the figures for the Activity in test [1] (filed as agonist) and in test [2] (filed as agonist) were 51% and 58%, respectively. The results for the EC50 in test [4] and in test [6] were 0.18 nM and 0.091 nM, respectively.

Take “H-HSQGTFTSDMSSYLDSRRAQDFVDWLMNTKRNRNNIA-NH2”: the Activity in test [1] was found to be 11%; in test [2] (filed as agonist), 45%. Further, the EC50 turned out to be 0.85 nM in test [4] and 0.11 nM in test [6].

Consider H-HSQGTFTSDMSKYLDSRRAQDFVDWLIKGR-NH2, for which the results for the Activity in test [1] and in test [2] were 5% and 19%, respectively. Besides, the EC50 worked out at 1.8 nM in test [4] and 0.28 nM in test [6].

`CSCC[C@H](NC(=O)[C@H](CC(=O)O)NC(=O)[C@H](CO)NC(=O)[C@@H](NC(=O)[C@H](Cc1ccccc1)NC(=O)[C@@H](NC(=O)CNC(=O)[C@H](CCC(N)=O)NC(=O)[C@H](CO)NC(=O)[C@@H](N)Cc1c[nH]cn1)[C@@H](C)O)[C@@H](C)O)C(=O)N[C@@H](CO)C(=O)N[C@@H](CCCCN)C(=O)N[C@@H](Cc1ccc(O)cc1)C(=O)N[C@@H](CCCCNC(=O)COCCOCCNC(=O)COCCOCCNC(=O)CC[C@H](NC(=O)CCCCCCCCCCCCCCCCC(=O)O)C(=O)O)C(=O)N[C@@H](CC(=O)O)C(=O)N[C@@H](CO)C(=O)N[C@@H](CCCNC(=N)N)C(=O)N[C@@H](CCCNC(=N)N)C(=O)N[C@@H](C)C(=O)N[C@@H](CCC(N)=O)C(=O)N[C@@H](CC(=O)O)C(=O)N[C@@H](Cc1ccccc1)C(=O)N[C@H](C(=O)N[C@@H](CC(=O)O)C(=O)N[C@@H](Cc1c[nH]c2ccccc12)C(=O)N[C@@H](CC(C)C)C(=O)N[C@@H](CCCCN)C(=O)N[C@@H](CC(N)=O)C(=O)NCC(=O)NCC(=O)N1CCC[C@H]1C(=O)N[C@@H](CO)C(=O)N[C@@H](CO)C(=O)NCC(=O)N[C@@H](C)C(=O)N1CCC[C@H]1C(=O)N1CCC[C@H]1C(=O)N1CCC[C@H]1C(=O)N[C@@H](CO)C(N)=O)C(C)C` (H-HSQGTFTSDMSKYK([AEEA-AEEA-γGlu-C18 diacid])DSRRAQDFVDWLKNGGPSSGAPPPS-NH2): the Activity came to 8% in test [1] and 108% in test [2] (filed as agonist). Moreover, the EC50 in test [4] is 1.2 nM; in test [6], 0.049 nM.

On to “H-HSQGTFTSDMSKYLDSRRAQDFVDWLKNGGPSSGAPPPS-NH2”, for which the Activity in test [1] (filed as agonist) came out at 177%; in test [2] (filed as agonist), 331%. Also, the EC50 stood at 0.052 nM in test [4] and 0.016 nM in test [6].
